Laboratory results reported in US20200087248A1, “Fluoroallylamine Derivative And Use Thereof” (SICHUAN KELUN-BIOTECH BIOPHARMACEUTICAL CO., LTD., priority 2017, published 2020).
Where a name gives a salt, the structure may show the parent alone. Each block holds one compound with its values, some of them ahead of it.

Columns and labels:
[1] = molecular target: T1, VAP-1 in abdominal fat of mice (Mus musculus, UniProt O70423); assay: Inhibition of the enzymatic activity of VAP-1 ex-vivo, abdominal fat after oral dosing; format: in vivo, BALBc mice; conditions: 0.5 mg/kg oral, abdominal fat collected after six hours; for inhibition at 0.5 mg/kg: mouse, read-out: Inhibition rate (%) against the enzymatic activity of VAP-1 (ex-vivo)
T1 construct: abdominal fat was collected and homogenized; from tissue; host or cells: abdominal fat of BALBc mice (homogenate supernatant)
T1 sequence (O70423 1-765): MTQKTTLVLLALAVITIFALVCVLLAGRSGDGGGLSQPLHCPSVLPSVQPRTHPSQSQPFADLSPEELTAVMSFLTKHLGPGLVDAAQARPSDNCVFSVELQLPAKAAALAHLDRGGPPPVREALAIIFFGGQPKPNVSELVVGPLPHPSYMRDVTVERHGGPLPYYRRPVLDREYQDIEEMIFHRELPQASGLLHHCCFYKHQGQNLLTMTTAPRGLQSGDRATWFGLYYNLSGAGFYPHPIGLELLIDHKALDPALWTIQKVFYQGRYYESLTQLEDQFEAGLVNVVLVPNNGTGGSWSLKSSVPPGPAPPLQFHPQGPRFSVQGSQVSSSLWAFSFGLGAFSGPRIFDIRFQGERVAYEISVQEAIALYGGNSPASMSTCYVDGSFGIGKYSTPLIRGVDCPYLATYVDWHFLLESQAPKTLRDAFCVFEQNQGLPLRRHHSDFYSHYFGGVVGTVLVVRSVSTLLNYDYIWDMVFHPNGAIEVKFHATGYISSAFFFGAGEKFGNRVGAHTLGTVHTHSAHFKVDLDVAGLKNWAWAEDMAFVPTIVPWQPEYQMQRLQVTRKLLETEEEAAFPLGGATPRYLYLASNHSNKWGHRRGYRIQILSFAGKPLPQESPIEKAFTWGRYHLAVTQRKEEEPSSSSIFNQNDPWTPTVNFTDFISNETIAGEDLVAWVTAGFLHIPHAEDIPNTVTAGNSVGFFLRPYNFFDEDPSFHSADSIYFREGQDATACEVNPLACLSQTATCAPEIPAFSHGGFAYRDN
Experimental: Inhibition Experiment Against the Enzymatic Activity (ex-vivo)
Tissue homogenate buffer solution (20 mM HEPES, pH 7.2, 1 mM EDTA, 250 mM sucrose, PMSF 0.2 mM)
Reaction buffer solution: 50 mM PBS, pH 7.4
Test kit: Amplex® Red Monoamine Oxidase Assay, Manufacturer: ThermoFisher
BALBc mice were administrated orally with different doses of the test compound, and the vehicle group was used as the control group. After six hours, abdominal fat was collected and homogenized at 1:20 (w/v) with the pre-cooled homogenate buffer solution, and thereafter, the homogenate was centrifuged at 10,000 g and 4° C. or 10 minutes, the supernatant was collected and stored at -80° C. for further use.
A test sample was diluted with the reaction buffer solution and successively added with the inhibition solution A: 1 μM Clorgyline+1 μM pargylin, to inhibit the activities of MAO-A and MAO-B, and the inhibition solution B: 1 μM Clorgyline+1 μM Pargylin+1 μM Mofegiline as the blank control, and after being incubated at room temperature for 20 min, 500 μM benzylamine hydrochloride, 1 U/mL HRP and 200 μM Amplex Red reagent were added to start the reaction. By referring to the method in “Experiment of inhibiting the enzymatic activity of VAP-1”, relative activity of each dose group was calculated, wherein the ratio of the fluorescent signal to reaction time in the linear range is the reaction rate, and the vehicle group is the positive control, thereby to study the inhibition of the compound against the enzymatic activity of VAP-1 in abdominal fat of mice.

CYP2D6 = molecular target: T2, CYP2D6 (Homo sapiens, UniProt P10635); assay: Inhibition of cytochrome P450 isoenzyme CYP2D6 (P450-Glo); format: in vitro ADME; conditions: estimated from inhibition rates at 10 μM and 1 μM; for IC50: read-out: IC50, inhibition against CYP2D6
T2 construct: purchased Promega
Experimental: (§1) Inhibition Experiment Against Cytochrome P450 Isoenzyme (CYP)
P450-Glo™ CYP2D6 Screening System, manufacturer: Promega
(§2) According to the specification of the test kit, 10 nM CYP1A2, 5 nMCYP2D6, and 1 nM CYP3A4 proteins and corresponding substrates (100 μM, 30 μM, 3 μM) as well as the compound were pre-incubating respectively for 10 min, G6PDH-G6P-NADP regeneration system was added to start the reaction, a test reagent was added later, after 20 min, the chemical luminescent signals were detectted.
(§3) Percent inhibition rate (%)=(1-(signal of each compound concentration group-signal of the blank group)/(signal of the negative control-signal of the blank group))*100.
(§4) According to the inhibition rates of the compound at different concentrations against P450 enzyme, the half inhibition concentration (IC5o) or range was estimated.
(§5) IC50=X*(1-percent inhibition rate (%))/percent inhibition rate (%), wherein, X is the test concentration of the compound.
(§6) According to the above method, the inhibition of the compound at the concentrations 10 μM, and 1 μM, against three CYPs were measured, and the results were shown in the following Tables 10-12: […]

CYP1A2 = molecular target: T3, CYP1A2 (Homo sapiens, UniProt P05177); assay: Inhibition of cytochrome P450 isoenzyme CYP1A2 (P450-Glo); format: in vitro ADME; conditions: estimated from inhibition rates at 10 μM and 1 μM
T3 construct: purchased Promega
T3 sequence (P05177 1-516): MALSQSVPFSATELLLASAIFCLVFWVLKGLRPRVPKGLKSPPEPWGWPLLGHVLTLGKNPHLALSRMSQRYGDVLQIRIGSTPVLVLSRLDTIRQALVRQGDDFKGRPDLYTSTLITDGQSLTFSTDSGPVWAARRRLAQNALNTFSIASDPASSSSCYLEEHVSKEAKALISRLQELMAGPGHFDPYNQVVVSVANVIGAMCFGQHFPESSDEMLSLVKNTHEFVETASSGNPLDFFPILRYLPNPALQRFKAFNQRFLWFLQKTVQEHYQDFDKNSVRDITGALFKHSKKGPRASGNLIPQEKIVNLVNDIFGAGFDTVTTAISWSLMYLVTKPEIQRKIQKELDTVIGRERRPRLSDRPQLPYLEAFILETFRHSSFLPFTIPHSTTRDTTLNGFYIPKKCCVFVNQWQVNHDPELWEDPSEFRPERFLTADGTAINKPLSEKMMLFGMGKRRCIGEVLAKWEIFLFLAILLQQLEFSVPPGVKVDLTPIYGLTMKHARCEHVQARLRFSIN
Experimental: as §1
P450-Glo™ CYP1A2 Screening System, manufacturer: Promega
as §2, §3, §4, §5, §6

CYP3A4 = molecular target: T4, CYP3A4 (Homo sapiens, UniProt P08684); assay: Inhibition of cytochrome P450 isoenzyme CYP3A4 (P450-Glo); format: in vitro ADME; conditions: estimated from inhibition rates at 10 μM and 1 μM; for IC50: read-out: IC50, inhibition against CYP3A4
T4 construct: purchased Promega
Experimental: as §1
P450-Glo™ CYP3A4 Screening System, manufacturer: Promega
as §2, §3, §4, §5, §6

T4 sequence (P08684 whole entry): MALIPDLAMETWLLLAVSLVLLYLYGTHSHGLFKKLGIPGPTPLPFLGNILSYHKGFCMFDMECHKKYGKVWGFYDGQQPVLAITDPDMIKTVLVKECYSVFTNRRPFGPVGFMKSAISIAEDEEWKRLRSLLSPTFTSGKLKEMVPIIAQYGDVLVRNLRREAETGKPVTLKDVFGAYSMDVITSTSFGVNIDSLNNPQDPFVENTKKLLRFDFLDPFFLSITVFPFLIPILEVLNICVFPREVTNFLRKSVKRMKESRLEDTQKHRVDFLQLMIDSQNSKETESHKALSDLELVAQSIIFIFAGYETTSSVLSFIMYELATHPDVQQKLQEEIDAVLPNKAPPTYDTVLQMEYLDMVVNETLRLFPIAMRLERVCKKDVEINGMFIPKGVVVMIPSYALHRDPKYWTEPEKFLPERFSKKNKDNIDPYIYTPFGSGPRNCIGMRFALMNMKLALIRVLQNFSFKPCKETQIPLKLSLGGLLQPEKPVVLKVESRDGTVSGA
T2 sequence (P10635 whole entry): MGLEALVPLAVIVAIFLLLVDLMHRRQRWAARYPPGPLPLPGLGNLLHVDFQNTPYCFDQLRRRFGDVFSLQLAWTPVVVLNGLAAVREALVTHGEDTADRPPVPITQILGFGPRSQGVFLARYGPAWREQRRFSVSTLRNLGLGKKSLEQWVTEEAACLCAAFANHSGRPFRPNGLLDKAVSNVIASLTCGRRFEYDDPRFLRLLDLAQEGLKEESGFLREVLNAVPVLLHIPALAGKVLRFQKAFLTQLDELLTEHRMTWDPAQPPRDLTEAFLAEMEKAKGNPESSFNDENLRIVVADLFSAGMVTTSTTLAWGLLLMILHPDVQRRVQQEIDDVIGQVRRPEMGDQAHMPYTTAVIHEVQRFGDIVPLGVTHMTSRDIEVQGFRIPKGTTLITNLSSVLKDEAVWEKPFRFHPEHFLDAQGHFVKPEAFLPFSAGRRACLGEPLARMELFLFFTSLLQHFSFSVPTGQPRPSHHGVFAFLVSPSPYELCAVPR

- inhibition at 0.5 mg/kg [1]: 96.7 ± 2.2%
Compound: NC/C(=C\F)COc1ccc(C(=O)Nc2ccccc2)cc1 [TM1-E, (E)-N-phenyl-4-((2-aminomethyl-3-fluoroallyl)oxy)-benzamide trifluoroacetate]

- inhibition at 0.5 mg/kg [1]: 86.6 ± 5.5%
Compound: NC/C(=C/F)COc1ccc2c(c1)CCNC2=O [TM26-Z, (Z)-6-((2-aminomethyl-3-fluoroallyl)oxy)-3,4-dihydroisoquinolin-1(2H)-one trifluoroacetate]

- inhibition at 0.5 mg/kg [1]: 93 ± 2.7%
Compound: NC/C(=C\F)COc1ccc(-c2ncccn2)cc1 [TM39-E, (E)-2-(4-(2-pyrimidyl)phenoxymethyl)-3-fluoroallylamine trifluoroacetate]

Compound: (E)-6-((2-(methylamino)-3-fluoroallyl)oxy)-2-methyl-3,4-dihydroisoquinolin-1(2H)-one trifluoroacetate [TM66-E]
- IC50, inhibition against CYP2D6 (CYP2D6): do not have significant inhibitions
- IC50 (CYP2D6): > 10 µM
- IC50, inhibition against CYP1A2 (CYP1A2): do not have significant inhibitions
- Inhibition rate (%) against the enzymatic activity of VAP-1 (ex-vivo) [1]: 92.3 ± 1.9%
- IC50, inhibition against CYP3A4 (CYP3A4): do not have significant inhibitions
- IC50 (CYP3A4): > 10 µM

Compound: (E)-6-((2-(methylamino)-3-fluoroallyl)oxy)-3,3-dimethyl-3,4-dihydro-isoquinolin-1(2H)-one trifluoroacetate [TM38-E]
- IC50, inhibition against CYP2D6 (CYP2D6): do not have significant inhibitions
- IC50 (CYP2D6): > 10 µM
- IC50, inhibition against CYP1A2 (CYP1A2): do not have significant inhibitions
- IC50 (CYP1A2; read-out: IC50, inhibition against CYP1A2): 6.73 ± 0.39 µM
- Inhibition rate (%) against the enzymatic activity of VAP-1 (ex-vivo) [1]: 92.7 ± 3.0%
- IC50, inhibition against CYP3A4 (CYP3A4): do not have significant inhibitions
- IC50 (CYP3A4): > 10 µM
